Legend:
Assay in all cases: biochemical
Set-up in all cases: KinomeScan competition binding panel (DiscoveRx), percent of control at 1 uM
Conditions in all cases: read-out: Percent Control
[1] = target: T1, ABL1(F317L)-phosphorylated (Homo sapiens, UniProt P00519, F317L)
T1 construct: phosphorylated
Excerpt: (§1) In order to further confirm the binding mode, we then tested the compounds in the BTK wild-type (wt) and BTK C481S mutant with immunoblotting by looking at the BTK Y551 auto-phosphorylation. […] In addition, a covalent bond was preferred to form between the […] acrylamide and Cys-481 near the hinge binding area, which further confirmed its irreversible binding mode (Fig. 1d). We next investigated CHMFL-BTK-11′s selectivity profile in 456 kinases/mutants with KinomeScan^TM technology.

CAMK2G = CAMK2G (Homo sapiens, UniProt Q13555)
Excerpt: as §1

CDK7 = CDK7 (Homo sapiens, UniProt P50613)
Excerpt: as §1

CIT = CIT (Homo sapiens, UniProt O14578)
Excerpt: as §1

DAPK3 = DAPK3 (Homo sapiens, UniProt O43293)
Excerpt: as §1

DDR2 = DDR2 (Homo sapiens, UniProt Q16832)
Excerpt: as §1

EGFR(L858R) = EGFR(L858R) (Homo sapiens, UniProt P00533, L858R)
Excerpt: as §1

EGFR(L861Q) = EGFR(L861Q) (Homo sapiens, UniProt P00533, L861Q)
Excerpt: as §1

EIF2AK1 = EIF2AK1 (Homo sapiens, UniProt Q9BQI3)
Excerpt: as §1

FGFR4 = FGFR4 (Homo sapiens, UniProt P22455)
Excerpt: as §1

FLT3(ITD) = FLT3(ITD) (Homo sapiens, UniProt P36888, ITD)
Excerpt: as §1

FLT3-autoinhibited = FLT3-autoinhibited (Homo sapiens, UniProt P36888)
Excerpt: as §1

IRAK1 = IRAK1 (Homo sapiens, UniProt P51617)
Excerpt: as §1

LIMK2 = LIMK2 (Homo sapiens, UniProt P53671)
Excerpt: as §1

LRRK2 = LRRK2 (Homo sapiens, UniProt Q5S007)
Excerpt: as §1

MAP3K3 = MAP3K3 (Homo sapiens, UniProt Q99759)
Excerpt: as §1

MLK2 = target: T2, MLK2 (Homo sapiens, UniProt Q02779)
T2 construct: gene MAP3K10
Excerpt: as §1

MYLK = MYLK (Homo sapiens, UniProt Q15746)
Excerpt: as §1

PAK7 = target: T3, PAK7 (Homo sapiens, UniProt Q9P286)
T3 construct: gene PAK5
Excerpt: as §1

PIM3 = PIM3 (Homo sapiens, UniProt Q86V86)
Excerpt: as §1

PRKD2 = PRKD2 (Homo sapiens, UniProt Q9BZL6)
Excerpt: as §1

PYK2 = target: T4, PYK2 (Homo sapiens, UniProt Q14289)
T4 construct: gene PTK2B
Excerpt: as §1

[2] = target: T5, RSK1(Kin.Dom.2-C-terminal) (Homo sapiens, UniProt Q15418)
T5 construct: gene RPS6KA1; Kin.Dom.2-C-terminal
Excerpt: as §1

SNARK = target: T6, SNARK (Homo sapiens, UniProt Q9H093)
T6 construct: gene NUAK2
Excerpt: as §1

p38-delta = target: T7, p38-delta (Homo sapiens, UniProt O15264)
T7 construct: gene MAPK13
Excerpt: as §1

Sequence of MYLK (Q15746 whole entry): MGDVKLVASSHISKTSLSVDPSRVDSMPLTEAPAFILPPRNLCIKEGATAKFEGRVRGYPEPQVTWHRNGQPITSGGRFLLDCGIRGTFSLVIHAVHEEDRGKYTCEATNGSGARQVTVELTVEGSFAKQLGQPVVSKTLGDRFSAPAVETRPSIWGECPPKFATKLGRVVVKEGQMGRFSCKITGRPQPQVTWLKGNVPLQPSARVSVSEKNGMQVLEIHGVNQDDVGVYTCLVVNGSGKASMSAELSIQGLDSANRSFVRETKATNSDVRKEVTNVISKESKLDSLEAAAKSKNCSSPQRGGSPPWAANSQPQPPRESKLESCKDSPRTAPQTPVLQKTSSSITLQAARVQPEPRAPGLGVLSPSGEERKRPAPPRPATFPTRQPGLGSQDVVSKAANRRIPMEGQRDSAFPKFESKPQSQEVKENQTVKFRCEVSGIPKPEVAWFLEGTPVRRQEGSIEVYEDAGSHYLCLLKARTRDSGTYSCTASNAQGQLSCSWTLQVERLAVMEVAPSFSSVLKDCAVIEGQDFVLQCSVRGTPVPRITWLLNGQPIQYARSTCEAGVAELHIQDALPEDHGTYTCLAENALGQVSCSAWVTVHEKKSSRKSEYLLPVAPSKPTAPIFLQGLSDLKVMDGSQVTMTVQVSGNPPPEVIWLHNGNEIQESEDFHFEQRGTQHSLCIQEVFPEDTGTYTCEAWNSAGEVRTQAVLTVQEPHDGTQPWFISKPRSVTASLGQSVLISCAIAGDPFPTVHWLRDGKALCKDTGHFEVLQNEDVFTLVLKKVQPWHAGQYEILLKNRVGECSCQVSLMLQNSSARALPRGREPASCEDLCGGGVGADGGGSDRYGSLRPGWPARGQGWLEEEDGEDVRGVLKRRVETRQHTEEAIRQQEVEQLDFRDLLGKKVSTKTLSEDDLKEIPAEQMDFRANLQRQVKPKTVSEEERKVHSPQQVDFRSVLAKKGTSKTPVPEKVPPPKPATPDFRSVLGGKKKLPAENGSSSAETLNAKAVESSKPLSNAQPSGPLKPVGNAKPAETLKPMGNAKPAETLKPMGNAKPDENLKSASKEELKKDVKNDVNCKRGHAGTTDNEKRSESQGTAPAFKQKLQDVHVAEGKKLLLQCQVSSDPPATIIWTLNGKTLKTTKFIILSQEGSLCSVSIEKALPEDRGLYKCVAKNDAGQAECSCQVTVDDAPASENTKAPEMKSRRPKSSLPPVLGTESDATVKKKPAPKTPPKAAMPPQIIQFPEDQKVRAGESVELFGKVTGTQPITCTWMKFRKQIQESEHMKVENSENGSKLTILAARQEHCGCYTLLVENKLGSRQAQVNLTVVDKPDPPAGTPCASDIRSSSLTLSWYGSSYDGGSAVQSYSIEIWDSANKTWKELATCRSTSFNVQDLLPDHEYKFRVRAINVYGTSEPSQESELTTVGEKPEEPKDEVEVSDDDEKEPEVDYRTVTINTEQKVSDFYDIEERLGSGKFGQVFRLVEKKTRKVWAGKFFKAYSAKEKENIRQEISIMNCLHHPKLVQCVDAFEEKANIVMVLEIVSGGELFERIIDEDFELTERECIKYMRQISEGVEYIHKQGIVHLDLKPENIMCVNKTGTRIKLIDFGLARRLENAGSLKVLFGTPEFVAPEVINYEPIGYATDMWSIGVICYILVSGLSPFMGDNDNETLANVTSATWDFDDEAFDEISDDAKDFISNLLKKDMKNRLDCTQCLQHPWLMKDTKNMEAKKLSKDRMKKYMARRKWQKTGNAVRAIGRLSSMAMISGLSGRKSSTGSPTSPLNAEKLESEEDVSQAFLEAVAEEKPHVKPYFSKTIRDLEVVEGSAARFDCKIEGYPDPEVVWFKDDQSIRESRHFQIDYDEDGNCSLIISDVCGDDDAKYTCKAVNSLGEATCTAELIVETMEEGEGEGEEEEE
Sequence of FGFR4 (P22455 whole entry): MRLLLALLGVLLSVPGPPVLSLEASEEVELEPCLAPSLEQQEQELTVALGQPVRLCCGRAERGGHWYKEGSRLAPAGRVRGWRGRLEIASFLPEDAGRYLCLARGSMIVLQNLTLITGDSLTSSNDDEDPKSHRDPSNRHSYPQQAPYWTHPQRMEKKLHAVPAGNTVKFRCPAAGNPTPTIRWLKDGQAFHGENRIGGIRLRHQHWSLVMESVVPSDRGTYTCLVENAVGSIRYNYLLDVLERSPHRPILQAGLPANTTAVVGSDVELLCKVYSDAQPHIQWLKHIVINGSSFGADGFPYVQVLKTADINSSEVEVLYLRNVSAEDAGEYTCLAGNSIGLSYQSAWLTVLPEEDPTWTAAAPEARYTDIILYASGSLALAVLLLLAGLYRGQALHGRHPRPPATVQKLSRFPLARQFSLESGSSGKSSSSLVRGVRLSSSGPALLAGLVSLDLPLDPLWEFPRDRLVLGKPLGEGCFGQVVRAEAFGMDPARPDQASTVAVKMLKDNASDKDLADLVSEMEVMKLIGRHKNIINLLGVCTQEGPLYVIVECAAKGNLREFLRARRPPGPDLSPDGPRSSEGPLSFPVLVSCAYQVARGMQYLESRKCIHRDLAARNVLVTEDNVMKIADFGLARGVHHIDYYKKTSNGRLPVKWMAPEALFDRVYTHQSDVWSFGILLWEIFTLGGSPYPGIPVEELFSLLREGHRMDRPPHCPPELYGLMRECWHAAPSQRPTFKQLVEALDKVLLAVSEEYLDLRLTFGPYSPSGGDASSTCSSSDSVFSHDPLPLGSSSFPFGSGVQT
T7 sequence (O15264 whole entry): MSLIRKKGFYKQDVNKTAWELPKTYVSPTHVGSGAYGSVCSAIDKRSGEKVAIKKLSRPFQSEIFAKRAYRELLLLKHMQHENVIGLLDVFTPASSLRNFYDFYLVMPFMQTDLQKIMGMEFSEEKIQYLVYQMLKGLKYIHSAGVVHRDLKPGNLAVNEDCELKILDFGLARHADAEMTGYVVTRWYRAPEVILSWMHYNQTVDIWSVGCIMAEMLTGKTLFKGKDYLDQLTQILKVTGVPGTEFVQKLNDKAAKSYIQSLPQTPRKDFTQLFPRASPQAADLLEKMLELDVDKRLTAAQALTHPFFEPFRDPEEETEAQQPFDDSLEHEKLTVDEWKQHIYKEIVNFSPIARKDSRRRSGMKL
Sequence of FLT3(ITD) (P36888 564-993, change not shown): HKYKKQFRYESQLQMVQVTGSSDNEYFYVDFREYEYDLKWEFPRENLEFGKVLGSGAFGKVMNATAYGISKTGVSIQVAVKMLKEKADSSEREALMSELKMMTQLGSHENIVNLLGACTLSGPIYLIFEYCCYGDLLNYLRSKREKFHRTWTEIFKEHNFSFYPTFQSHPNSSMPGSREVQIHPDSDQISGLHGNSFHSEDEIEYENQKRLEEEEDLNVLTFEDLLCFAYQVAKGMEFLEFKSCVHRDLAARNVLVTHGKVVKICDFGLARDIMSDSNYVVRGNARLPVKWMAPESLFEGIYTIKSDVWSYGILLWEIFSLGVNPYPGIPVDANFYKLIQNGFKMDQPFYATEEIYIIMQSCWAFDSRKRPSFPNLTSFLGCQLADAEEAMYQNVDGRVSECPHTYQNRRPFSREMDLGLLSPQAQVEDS
Sequence of MAP3K3 (Q99759 whole entry): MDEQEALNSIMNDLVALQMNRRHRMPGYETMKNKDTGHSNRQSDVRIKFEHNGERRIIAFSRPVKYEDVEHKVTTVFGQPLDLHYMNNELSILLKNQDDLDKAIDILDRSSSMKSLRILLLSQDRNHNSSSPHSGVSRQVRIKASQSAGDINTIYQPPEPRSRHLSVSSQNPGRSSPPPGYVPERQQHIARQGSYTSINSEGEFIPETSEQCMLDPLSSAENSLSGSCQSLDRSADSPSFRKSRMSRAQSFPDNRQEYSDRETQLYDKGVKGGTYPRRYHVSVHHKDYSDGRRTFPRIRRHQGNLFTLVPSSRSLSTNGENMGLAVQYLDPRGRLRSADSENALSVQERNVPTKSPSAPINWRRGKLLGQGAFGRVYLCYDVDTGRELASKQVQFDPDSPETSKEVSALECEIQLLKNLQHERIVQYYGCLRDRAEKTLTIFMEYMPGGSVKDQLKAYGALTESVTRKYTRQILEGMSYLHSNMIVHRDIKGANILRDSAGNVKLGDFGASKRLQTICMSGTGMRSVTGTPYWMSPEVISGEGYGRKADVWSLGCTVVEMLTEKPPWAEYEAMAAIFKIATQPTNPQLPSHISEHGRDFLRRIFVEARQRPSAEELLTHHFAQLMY
Sequence of DDR2 (Q16832 whole entry): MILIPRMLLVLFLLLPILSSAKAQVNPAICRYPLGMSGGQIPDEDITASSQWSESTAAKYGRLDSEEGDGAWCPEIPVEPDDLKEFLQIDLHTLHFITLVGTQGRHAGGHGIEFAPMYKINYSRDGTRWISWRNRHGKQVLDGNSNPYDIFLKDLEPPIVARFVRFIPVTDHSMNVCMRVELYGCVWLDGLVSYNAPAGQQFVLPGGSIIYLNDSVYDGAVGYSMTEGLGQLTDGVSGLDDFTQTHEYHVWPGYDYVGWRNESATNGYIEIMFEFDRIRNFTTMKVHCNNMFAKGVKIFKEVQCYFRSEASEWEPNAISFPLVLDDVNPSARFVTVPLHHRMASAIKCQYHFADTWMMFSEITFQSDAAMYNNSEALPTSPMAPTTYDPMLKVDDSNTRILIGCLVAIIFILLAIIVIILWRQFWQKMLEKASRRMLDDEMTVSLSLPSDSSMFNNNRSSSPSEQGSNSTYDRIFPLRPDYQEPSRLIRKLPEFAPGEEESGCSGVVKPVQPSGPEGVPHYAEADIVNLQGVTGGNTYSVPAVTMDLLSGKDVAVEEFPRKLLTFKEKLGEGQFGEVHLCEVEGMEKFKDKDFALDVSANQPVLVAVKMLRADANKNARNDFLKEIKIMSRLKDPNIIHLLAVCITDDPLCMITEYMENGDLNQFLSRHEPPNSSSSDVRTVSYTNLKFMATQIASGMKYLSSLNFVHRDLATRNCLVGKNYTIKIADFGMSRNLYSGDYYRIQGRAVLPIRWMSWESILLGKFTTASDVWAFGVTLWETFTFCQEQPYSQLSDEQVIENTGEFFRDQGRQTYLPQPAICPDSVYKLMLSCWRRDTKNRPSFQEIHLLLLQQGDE

C=CC(=O)Nc1cc(-n2c(=O)ccc3cnc4ccc(-n5cccn5)cc4c32)ccc1C [CHMFL-BTK-11]
remaining binding at 1 µM [1]: 100%
remaining binding at 1 µM (CAMK2G): 73%
remaining binding at 1 µM (CDK7): 89%
remaining binding at 1 µM (CIT): 98%
remaining binding at 1 µM (DAPK3): 100%
remaining binding at 1 µM (DDR2): 99%
remaining binding at 1 µM (EGFR(L858R)): 70%
remaining binding at 1 µM (EGFR(L861Q)): 71%
remaining binding at 1 µM (EIF2AK1): 92%
remaining binding at 1 µM (FGFR4): 100%
remaining binding at 1 µM (FLT3(ITD)): 89%
remaining binding at 1 µM (FLT3-autoinhibited): 100%
remaining binding at 1 µM (IRAK1): 87%
remaining binding at 1 µM (LIMK2): 100%
remaining binding at 1 µM (LRRK2): 96%
remaining binding at 1 µM (MAP3K3): 100%
remaining binding at 1 µM (MLK2): 94%
remaining binding at 1 µM (MYLK): 82%
remaining binding at 1 µM (PAK7): 100%
remaining binding at 1 µM (PIM3): 95%
remaining binding at 1 µM (PRKD2): 100%
remaining binding at 1 µM (PYK2): 100%
remaining binding at 1 µM [2]: 100%
remaining binding at 1 µM (SNARK): 90%
remaining binding at 1 µM (p38-delta): 96%

Source: PMC5428509, “Irreversible inhibition of BTK kinase by a novel highly selective inhibitor CHMFL-BTK-11 suppresses inflammatory response in rheumatoid arthritis model” (Scientific Reports, 2017)
